Assay results reported in PubChem BioAssay AID330 (DTP/NCI, 2004).
“And” between values parts separate entries of the source, which are not always exact repeats. Equal entries are not always repeated. Toxic doses and inconclusive results are not listed.

Tested on: P388 leukemia ip, CD2F1 mice, survival T/C
Experiment: NCI In Vivo Anticancer Drug Screen. Data for tumor model P388 Leukemia (intraperitoneal) in CD2F1 (CDF1) mice
Conditions: endpoint: median survival time, higher = longer survival
How it was run: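 Mice carrying the transplanted tumor received test compound or vehicle. Survival was recorded in each group, and the value is the treated-group measurement divided by that of the vehicle-treated control group.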

[1] = dose: 12.5 mg/kg/injection, schedule: Q01DX005 (ip), vehicle: Klucel (hydroxypropylcellulose) (HPC)
[2] = dose: 25.0 mg/kg/injection, schedule: Q01DX005 (ip), vehicle: Klucel (hydroxypropylcellulose) (HPC)
[3] = dose: 50.0 mg/kg/injection, schedule: Q01DX005 (ip), vehicle: Klucel (hydroxypropylcellulose) (HPC)
[4] = dose: 100.0 mg/kg/injection, schedule: Q01DX005 (ip), vehicle: Klucel (hydroxypropylcellulose) (HPC)
[5] = dose: 200.0 mg/kg/injection, schedule: Q01DX005 (ip), vehicle: Klucel (hydroxypropylcellulose) (HPC)
[6] = dose: 30.0 mg/kg/injection, schedule: Q01DX005 (ip), vehicle: saline with Tween-80
[7] = dose: 60.0 mg/kg/injection, schedule: Q01DX005 (ip), vehicle: saline with Tween-80
[8] = dose: 120.0 mg/kg/injection, schedule: Q01DX005 (ip), vehicle: saline with Tween-80
[9] = dose: 100.0 mg/kg/injection, schedule: Q01DX001 (ip), vehicle: saline with Tween-80
[10] = dose: 200.0 mg/kg/injection, schedule: Q01DX001 (ip), vehicle: saline with Tween-80
[11] = dose: 400.0 mg/kg/injection, schedule: Q01DX001 (ip), vehicle: saline with Tween-80
[12] = dose: 50.0 mg/kg/injection, schedule: Q01DX009 (ip), vehicle: Klucel (hydroxypropylcellulose) (HPC)
[13] = dose: 100.0 mg/kg/injection, schedule: Q01DX009 (ip), vehicle: Klucel (hydroxypropylcellulose) (HPC)
[14] = dose: 50.0 mg/kg/injection, schedule: Q01DX009 (ip), vehicle: saline
[15] = dose: 100.0 mg/kg/injection, schedule: Q01DX009 (ip), vehicle: saline
[16] = dose: 200.0 mg/kg/injection, schedule: Q01DX009 (ip), vehicle: saline
[17] = dose: 60.0 mg/kg/injection, schedule: Q01DX005 (ip), vehicle: saline
[18] = dose: 120.0 mg/kg/injection, schedule: Q01DX005 (ip), vehicle: saline
[19] = dose: 240.0 mg/kg/injection, schedule: Q01DX005 (ip), vehicle: saline
[20] = dose: 200.0 mg/kg/injection, schedule: Q04DX003 (ip), vehicle: saline with Tween-80
[21] = dose: 50.0 mg/kg/injection, schedule: Q01DX005 (ip), vehicle: saline with Tween-80
[22] = dose: 100.0 mg/kg/injection, schedule: Q01DX005 (ip), vehicle: saline with Tween-80
[23] = dose: 200.0 mg/kg/injection, schedule: Q01DX005 (ip), vehicle: saline with Tween-80
[24] = dose: 240.0 mg/kg/injection, schedule: Q01DX005 (ip), vehicle: saline with Tween-80

C/C=C1/C[N+]2(C)CCc3c([nH]c4ccccc34)C2CC1C(CO)C(=O)OC (stereo not drawn)
T/C (dose: 12.5 mg/kg/injection, schedule: Q01DX009 (ip), vehicle: saline with Tween-80): 96 % of control
T/C (dose: 25.0 mg/kg/injection, schedule: Q01DX009 (ip), vehicle: saline with Tween-80): 104 % of control
T/C (dose: 50.0 mg/kg/injection, schedule: Q01DX009 (ip), vehicle: saline with Tween-80): 98 % of control

CC1OC(O[C@@H]2OC=C(C=O)[C@@]3(O)CC[C@H](C)[C@@H]23)C(O)C(O)C1O (stereo partly drawn)
T/C (dose: 6.25 mg/kg/injection, schedule: Q01DX005 (ip), vehicle: Klucel (hydroxypropylcellulose) (HPC)): 100 % of control
T/C [1]: 116 % of control
T/C [2]: 95 % of control
T/C [3]: 87 % of control

O=C(O)c1cccc2c1C(=O)c1ccccc1-2
T/C [3]: 95 % of control
T/C [4]: 100 % of control
T/C [5]: 105 % of control

CCCCC1(CCCCCCCCC(O)CC(=O)OCC)OCCO1 (stereo not drawn)
T/C (dose: 100.0 mg/kg/injection, schedule: Q04DX002 (ip), vehicle: Klucel (hydroxypropylcellulose) (HPC)): 104 % of control
T/C (dose: 200.0 mg/kg/injection, schedule: Q04DX002 (ip), vehicle: Klucel (hydroxypropylcellulose) (HPC)): 100 % of control
T/C (dose: 400.0 mg/kg/injection, schedule: Q04DX002 (ip), vehicle: Klucel (hydroxypropylcellulose) (HPC)): 96 % of control

CCOc1ccc2c(N=[N+]=[N-])cc(C)nc2c1
T/C [6]: 94 % of control
T/C [7]: 103 % of control and 91 % of control
T/C [8]: 92 % of control

CC1=C(C(=O)Nc2ccc(Cl)c(C(=O)OC(C)C)c2)SCCO1
T/C [9]: 96 % of control
T/C [10]: 92 % of control
T/C [11]: 87 % of control

c1ccc2c(CNC3CCCCC3)c[nH]c2c1
T/C (dose: 25.0 mg/kg/injection, schedule: Q01DX009 (ip), vehicle: Klucel (hydroxypropylcellulose) (HPC)): 109 % of control
T/C [12]: 98 % of control
T/C [13]: 96 % of control

CC(=O)OCC12C(OC(=O)c3ccccc3)C(=O)C3C(OC(C)=O)C1(OC3(C)C)C(C)(O)CC(OC(C)=O)C2OC(=O)/C=C/c1ccccc1 (stereo not drawn) (tested in a mixture with another compound)
T/C [2]: 100 % of control
T/C [3]: 100 % of control
T/C [4]: 102 % of control
T/C [5]: 102 % of control

Cc1ccc(C)c2c1C(O)(C#Cc1ccccc1)c1c(C)ccc(C)c1C2(O)C#Cc1ccccc1 (stereo not drawn)
T/C [2]: 90 % of control
T/C [3]: 93 % of control
T/C [4]: 86 % of control

Cc1nc(N)c(C#N)c(-c2ccccc2)c1-c1ccccc1
T/C [9]: 92 % of control
T/C [10]: 90 % of control
T/C [11]: 106 % of control

O=C(Nc1cc(Cl)ccc1Cl)Oc1ccc(Cl)cc1C(=O)c1ccccc1
T/C [14]: 102 % of control
T/C [15]: 97 % of control
T/C [16]: 89 % of control

O=C(n1ccnc1)C(F)(F)C(F)(F)F
T/C [17]: 95 % of control
T/C [18]: 101 % of control
T/C [19]: 96 % of control

O=C(O)CC1OCC=C2C[N+]3([O-])CCC45c6ccccc6NC4C1C2CC53 (stereo not drawn)
T/C (dose: 15.0 mg/kg/injection, schedule: Q01DX005 (ip), vehicle: saline with Tween-80): 105 % of control
T/C [6]: 105 % of control
T/C [7]: 99 % of control and 101 % of control

Nc1nc(=O)n(C2CC(O)C(CO)O2)cc1Br (stereo not drawn)
T/C (dose: 100.0 mg/kg/injection, schedule: Q04DX003 (ip), vehicle: saline): 91 % of control
T/C (dose: 200.0 mg/kg/injection, schedule: Q04DX003 (ip), vehicle: saline): 100 % of control
T/C (dose: 400.0 mg/kg/injection, schedule: Q04DX003 (ip), vehicle: saline): 104 % of control

C[C@H](N)C(=O)NCCNC(=O)[C@H](C)N
T/C [17]: 96 % of control
T/C [18]: 107 % of control
T/C [19]: 105 % of control

COC(=O)CCc1ccc(NP(=O)(N2CC2)N2CC2)cc1
T/C (dose: 12.5 mg/kg/injection, schedule: Q04DX003 (ip), vehicle: saline with Tween-80): 100 % of control
T/C (dose: 25.0 mg/kg/injection, schedule: Q04DX003 (ip), vehicle: saline with Tween-80): 115 % of control
T/C (dose: 100.0 mg/kg/injection, schedule: Q01DX009 (ip), vehicle: saline with Tween-80): 150 % of control
T/C (dose: 132.0 mg/kg/injection, schedule: Q04DX003 (ip), vehicle: saline with Tween-80): 150 % of control
T/C (dose: 200.0 mg/kg/injection, schedule: Q01DX009 (ip), vehicle: saline with Tween-80): 90 % of control
T/C [20]: 156 % of control
T/C (dose: 300.0 mg/kg/injection, schedule: Q04DX003 (ip), vehicle: saline with Tween-80): 90 % of control

COC(=N)C(Cl)(Cl)Cl
T/C [14]: 97 % of control
T/C [15]: 100 % of control
T/C [16]: 95 % of control

CC(C)(CNC(=O)C12CC3CC(CC(C3)C1)C2)NC(=O)C12CC3CC(CC(C3)C1)C2
T/C [1]: 98 % of control
T/C [2]: 107 % of control
T/C [3]: 93 % of control
T/C [4]: 88 % of control

CC(C)(C)C1CS1 (stereo not drawn)
T/C [21]: 107 % of control
T/C [22]: 107 % of control
T/C [23]: 117 % of control

COc1ccc(C(c2cc(C(C)(C)C)c(O)c(C(C)(C)C)c2)N2CCCCC2)cc1 (stereo not drawn)
T/C [21]: 102 % of control
T/C [22]: 109 % of control
T/C [23]: 112 % of control

O=c1c2ccccc2c(=O)c2c1ccc1[nH]c3c(ccc4c(=O)c5ccccc5c(=O)c43)[nH]c12
T/C [21]: 95 % of control
T/C [22]: 107 % of control
T/C [23]: 104 % of control

O=C1NC2CC1C(O)C2O (stereo not drawn)
T/C [17]: 101 % of control
T/C [18]: 101 % of control
T/C [19]: 100 % of control

CN(C)S(=O)(=O)N1CCOCC1
T/C (dose: 50.0 mg/kg/injection, schedule: Q04DX003 (ip), vehicle: Klucel (hydroxypropylcellulose) (HPC)): 95 % of control
T/C (dose: 100.0 mg/kg/injection, schedule: Q04DX003 (ip), vehicle: Klucel (hydroxypropylcellulose) (HPC)): 101 % of control
T/C (dose: 200.0 mg/kg/injection, schedule: Q04DX003 (ip), vehicle: Klucel (hydroxypropylcellulose) (HPC)): 93 % of control
T/C (dose: 400.0 mg/kg/injection, schedule: Q04DX003 (ip), vehicle: Klucel (hydroxypropylcellulose) (HPC)): 110 % of control

CCc1nc2c(cnn2C)c(=O)n1-c1ccccc1
T/C [3]: 101 % of control
T/C [4]: 100 % of control
T/C [5]: 96 % of control

O=C1CCc2nc(-c3ccccc3)ncc21
T/C (dose: 100.0 mg/kg/injection, schedule: Q04DX003 (ip), vehicle: saline with Tween-80): 99 % of control
T/C [20]: 89 % of control
T/C (dose: 400.0 mg/kg/injection, schedule: Q04DX003 (ip), vehicle: saline with Tween-80): 88 % of control

COc1cc(C=C2C(=O)C=CC2=O)ccc1O
T/C (dose: 12.5 mg/kg/injection, schedule: Q04DX002 (ip), vehicle: saline): 92 % of control
T/C (dose: 25.0 mg/kg/injection, schedule: Q04DX002 (ip), vehicle: saline): 96 % of control

Nc1nc2ncc(CN(C(=O)CCCl)c3ccc(C(=O)NC(CCC(=O)O)C(=O)O)cc3)nc2c(=O)[nH]1 (stereo not drawn)
T/C (dose: 50.0 mg/kg/injection, schedule: Q01DX009 (ip), vehicle: alkali diluted with saline): 100 % of control
T/C (dose: 100.0 mg/kg/injection, schedule: Q01DX009 (ip), vehicle: alkali diluted with saline): 108 % of control
T/C (dose: 200.0 mg/kg/injection, schedule: Q01DX009 (ip), vehicle: alkali diluted with saline): 101 % of control

Nc1ccccc1C(=O)CCc1ccccc1
T/C [7]: 100 % of control
T/C [8]: 99 % of control
T/C [24]: 97 % of control

O=CNNC(=O)C(Cl)Cl
T/C [12]: 107 % of control
T/C [13]: 107 % of control
T/C (dose: 200.0 mg/kg/injection, schedule: Q01DX009 (ip), vehicle: Klucel (hydroxypropylcellulose) (HPC)): 112 % of control

Cc1ccc(N=Nc2c(-c3ccccc3)nn(C(N)=S)c2C)cc1
T/C [9]: 92 % of control
T/C [10]: 97 % of control
T/C [11]: 103 % of control

NNC(=O)C1C2c3ccccc3C(c3ccccc32)C1C(=O)NN (stereo not drawn)
T/C [7]: 99 % of control
T/C [8]: 99 % of control
T/C [24]: 96 % of control

COC(=O)c1nc2[nH]n(-c3ccccc3)c(=O)c2c(C(=O)OC)c1C(C)C(=O)c1ccc(Cl)cc1 (stereo not drawn)
T/C [7]: 96 % of control
T/C [8]: 103 % of control
T/C [24]: 98 % of control
